Laboratory results reported in patent publication US6599713B1, “Method for quantitating leukocyte count in whole blood sample” (priority 1999, dated 2003).

Assays:
[1] = system: white blood cells contained in a whole blood sample; assay: MPO-releasing effects of various surfactants on whole blood, ELISA (Examples 3 to 5); type: cell-based, human; conditions: 60 minutes on ice
Experimental: 10 ml of healthy human whole blood was collected using a 28 G winged intravenous injection needle (manufactured and sold by Terumo Corporation, Japan), and immediately mixed with 10 mg of EDTA-2K (manufactured and sold by Dojin Laboratories, Japan), and the resultant EDTA-containing whole blood sample was subjected to the below-described various measurements within 1 hour from the blood collection.
500 μl of the blood was put in a 2-ml Eppendorf tube, and 500 μl of a 1% (w/v) aqueous surfactant solution was added to the tube, and the resultant mixture was stirred for 2 seconds by a Vortex mixer. Subsequently, the mixture was allowed to stand for 60 minutes on ice to thereby lyze the white blood cells. After the lysis of the white blood cells, 100 μl of the mixture was taken out and added to 900 μl of a PBS solution containing dissolved therein 1% BSA (trade name: “Sigma fraction V”, manufactured and sold under the brand of SIGMA™, U.S.A.). The resultant mixture was stirred by a Vortex mixer, and then 10 μl of the mixture was taken out and diluted 2,000-fold with 1% BSA/PBS solution. The resultant diluted mixture was subjected to a measurement by ELISA.
The outline of the ELISA is as follows. A 5 μg/ml PBS solution of an anti-MPO antibody was put into the wells of a Nunc Immuno Plate (manufactured and sold by Nalge Nunc International, Denmark) in an amount of 100 μl per well. The solution in each well was sealed and subjected to a reaction for 18 hours at 4° C. thereby immobilizing the primary antibody. The wells were washed with a washing solution (0.05% Tween™ 20/PBS) and then subjected to blocking for 1 hour at room temperature by using 200 μl of a blocking solution (1% BSA/PBS), and then washed twice with the washing solution. […] The wells were washed 5 times with a washing solution, and 100 μl of a just-prepared TMB solution (manufactured and sold by Kirkegaad & Perry Laboratories, U.S.A.) was added thereto to effect a color reaction. 2 Minutes after the start of the color reaction, 100 μl of a 1 N sulfuric acid solution (manufactured and sold by Nacalai Tesque, Inc., Japan) was added to the wells to thereby terminate the reaction. Then, the absorbance at 450 nm was measured by means of a plate reader (manufactured and sold by Bio-Rad Laboratories, U.S.A.).
With respect to the measurement of the MPO concentration of the sample, MPO (manufactured and sold by Elastin Products Co., INC., U.S.A.) was added to the sample so that the final concentration of the added MPO became 5 ng/ml or 10 ng/ml, and the resultant mixture was measured with respect to the MPO concentration. From the obtained value of MPO concentration, a calibration curve for each sample was obtained. The obtained calibration curve was corrected, based on its relationship with a calibration curve obtained with respect to a standard MPO solution, and the corrected calibration curve of each sample was used to determine the MPO concentration of the whole blood. The measurement was conducted 3 times, and a mean value±standard deviation was obtained.

[2] = system: white blood cells contained in the whole blood; assay: Concentration of surfactant and release amount of MPO in whole blood, ELISA (Example 2); type: cell-based, human; conditions: 60 minutes on ice, mean ± SD of 3
Experimental: 10 ml of healthy human whole blood was collected and immediately mixed with 10 mg of EDTA-2K (manufactured and sold by Dojin Laboratories, Japan), and the resultant EDTA-containing whole blood sample was subjected to the below-described various measurements within 1 hour from the blood collection.
500 μl of the blood was put in a 2-ml Eppendorf tube, and 500 μl of an aqueous surfactant solution having a surfactant concentration of 0.1, 0.2, 0.4, 0.6, 1, 2, 4, 10 or 20% (w/v) was added to the tube, and the resultant mixture was stirred for 2 seconds by a Vortex mixer. Subsequently, the mixture was allowed to stand for 60 minutes on ice to thereby lyze the white blood cells. […] After the lysis of the white blood cells, 100 μl of the mixture was taken out and added to 900 μl of a PBS solution containing dissolved therein 1% BSA (trade name: “Sigma fraction V”, manufactured and sold under the brand of SIGMA™, U.S.A.). The resultant mixture was stirred by a Vortex mixer, and then 10 μl of the mixture was taken out and diluted 2,000-fold with 1% BSA/PBS solution. The resultant diluted mixture was subjected to a measurement by ELISA.
The outline of the ELISA is as follows. A 5 μg/ml PBS solution of a rabbit anti-human myeloperoxidase antibody (manufactured and sold by Calbiochem-Novabiochem Corporation, U.S.A.)(hereinafter, frequently referred to as “anti-MPO antibody”) was put into the wells of a Nunc Immuno Plate (manufactured and sold by Nalge Nunc International, Denmark) in an amount of 100 μl per well. The solution in each well was sealed and subjected to a reaction for 18 hours at 4° C. thereby immobilizing the primary antibody. The wells were washed with a washing solution (0.05% Tween™ 20/PBS) and then subjected to blocking for 1 hour at room temperature by using 200 μl of a blocking solution (1% BSA/PBS), and then washed twice with the washing solution. Then, the above-obtained diluted mixture (blood sample which had been treated with a surfactant and then diluted) was put in the wells in an amount of 100 μl per well, and subjected to a reaction for 2 hours at room temperature. Then, the wells were washed 3 times with the washing solution, and a 5 μg/ml solution of an anti-MPO antibody labeled with horseradish peroxidase (hereinafter referred to as “HRP”) was put in the wells in an amount of 100 μl per well, and subjected to a reaction for 1 hour at room temperature. As the above-mentioned HRP-labeled anti-MPO antibody, an anti-human MPO antibody (manufactured and sold by Calbiochem-Novabiochem Corporation, U.S.A.) which had been labeled with HRP Grade IV (manufactured and sold under the brand of SIGMA™, U.S.A.) was employed. The labeling was performed by the method described in Analytical Biochemistry, 132, 68-73 (1983). The wells were washed 5 times with the washing solution, and 100 1 μl of a just-prepared TMB solution (manufactured and sold by Kirkegaad & Perry Laboratories, U.S.A.) was added thereto to effect a color reaction. 2 Minutes after the start of the color reaction, 100 μl of a 1 N sulfuric acid solution (manufactured and sold by Nacalai Tesque, Inc., Japan) was added to the wells to thereby terminate the reaction. Then, the absorbance at 450 nm was measured by means of a plate reader (manufactured and sold by Bio-Rad Laboratories, U.S.A.). The measurement was conducted 3 times, and a mean value±standard deviation was obtained.

[3] = system: white blood cells in whole blood; conditions: nonionic surfactants, dependence on HLB value
Experimental: Blood collection, treatment with a surfactant, and ELISA were performed in the same manner as in Example 3 in order to measure the MPO-releasing effects of the below-mentioned various surfactants.
These surfactants were individually dissolved in purified water (manufactured and sold by Kyoei Seiyaku Co., Japan) so as to obtain 10% or 2% (w/v) aqueous solutions. Before use in the testing, each of the aqueous solutions was further diluted to obtain a 1% (w/v) aqueous solution, and the 1% (w/v) aqueous solution was used in the testing within 15 hours from the preparation thereof. As a control, purified water (manufactured and sold by Kyoei Seiyaku Co., Japan) was used.

[4] = Example 3 (Table 3): 500 μl blood + 500 μl 1% (w/v) surfactant solution, mean ± SD of 3
[5] = Example 4 (Table 4): 500 μl blood + 500 μl 1% (w/v) surfactant solution, mean ± SD
[6] = Example 5 (Table 5): 500 μl blood + 500 μl 1% (w/v) surfactant solution, mean ± SD
[7] = concentration of surfactant 0.05 % (w/v)
[8] = concentration of surfactant 0.10 % (w/v)
[9] = concentration of surfactant 0.20 % (w/v)
[10] = concentration of surfactant 0.30 % (w/v)
[11] = concentration of surfactant 0.50 % (w/v)
[12] = concentration of surfactant 1.00 % (w/v)
[13] = concentration of surfactant 2.00 % (w/v)
[14] = concentration of surfactant 5.00 % (w/v)
[15] = concentration of surfactant 10.00 % (w/v)

In the case of “α-(4-Nonylphenyl)-ω-hydroxypoly(oxy-1,2-ethanediyl) [Nissan Nonion NS-208.5]”, the “MPO concentration of whole blood” value [1, 4] is reported as 6.20 ± 1.51 µg/mL.
In the case of `CCCCCCCCCCCC[n+]1ccccc1.[Cl-]` [LPC, 1-Laurylpyridinium Chloride], the “MPO concentration of whole blood” value [1, 5] is reported as 9.58 ± 1.39 µg/mL and the “MPO concentration of whole blood” value [1, 6] is reported as 7.57 ± 0.60 µg/mL.
For `CCCCCCCCCCCCCC[N+](C)(C)C.[Br-]` [TTAB, Tetradecyltrimethylammonium Bromide], the “MPO concentration of whole blood” value [1, 5] was 9.33 ± 1.30 µg/mL and the “MPO concentration of whole blood” value [1, 6] was 8.08 ± 0.11 µg/mL.
`CCCCCCCCCCCC[N+](C)(C)C.[Br-]` [DTAB, n-Dodecyltrimethylammonium Bromide] was tested, and the “MPO concentration of whole blood” value [1, 6] was 8.05 ± 0.64 µg/mL.
`CCCCCCCCCCCCCCCC[N+](C)(C)C.[Br-]` [HTAB, Hexadecyltrimethylammonium Bromide] was tested, and the “MPO concentration of whole blood” value [1, 4] was 5.80 ± 1.41 µg/mL, the “MPO concentration of whole blood” value [1, 5] was 9.58 ± 0.53 µg/mL and the “MPO concentration of whole blood” value [1, 6] was 7.15 ± 2.69 µg/mL.
`CCCCCCCCCCCCCCCC[N+](C)(C)C.[Cl-]` [HTAC, Hexadecyltrimethylammonium Chloride] was tested, and the “MPO concentration of whole blood” value [1, 5] was 10.93 ± 0.82 µg/mL and the “MPO concentration of whole blood” value [1, 6] was 7.35 ± 0.28 µg/mL.
“α-[4-(1,1,3,3,-Tetramethylbutyl)phenyl]-ω-hydroxypoly(oxy-1,2-ethanediyl) [Triton ™ X-114]” was tested, and the “Release amount of MPO in whole blood” value [2, 7] was 0.120 ± 0.026 Abs. 450 nm, the “Release amount of MPO in whole blood” value [2, 8] was 0.131 ± 0.016 Abs. 450 nm and the “Release amount of MPO in whole blood” value [2, 9] was 0.207 ± 0.004 Abs. 450 nm. For the same molecule, the “Release amount of MPO in whole blood” value [2, 10] was 0.198 ± 0.003 Abs. 450 nm, the “Release amount of MPO in whole blood” value [2, 11] was 0.259 ± 0.007 Abs. 450 nm and the “Release amount of MPO in whole blood” value [2, 12] was 0.240 ± 0.006 Abs. 450 nm. For the same molecule, the “Release amount of MPO in whole blood” value [2, 13] was 0.245 ± 0.015 Abs. 450 nm, the “Release amount of MPO in whole blood” value [2, 14] was 0.239 ± 0.002 Abs. 450 nm and the “Release amount of MPO in whole blood” value [2, 15] was 0.243 ± 0.005 Abs. 450 nm. For the same molecule, the “MPO concentration of whole blood” value [1, 4] was 7.44 ± 1.81 µg/mL and the “Efficiency for releasing intrinsic MPO from the white blood cells (in words)” value [3] was “high activity to release intrinsic MPO”.
For “α-[4-(1,1,3,3,-Tetramethylbutyl)phenyl]-ω-hydroxypoly(oxy-1,2-ethanediyl) [Igepal ™ CA630]”, the “Release amount of MPO in whole blood” value [2, 7] was 0.103 ± 0.005 Abs. 450 nm, the “Release amount of MPO in whole blood” value [2, 8] was 0.156 ± 0.009 Abs. 450 nm and the “Release amount of MPO in whole blood” value [2, 9] was 0.205 ± 0.007 Abs. 450 nm. The “Release amount of MPO in whole blood” value [2, 10] was 0.211 ± 0.008 Abs. 450 nm, the “Release amount of MPO in whole blood” value [2, 11] was 0.249 ± 0.002 Abs. 450 nm and the “Release amount of MPO in whole blood” value [2, 12] was 0.220 ± 0.008 Abs. 450 nm. The “Release amount of MPO in whole blood” value [2, 13] was 0.208 ± 0.003 Abs. 450 nm, the “Release amount of MPO in whole blood” value [2, 14] was 0.199 ± 0.018 Abs. 450 nm and the “Release amount of MPO in whole blood” value [2, 15] was 0.227 ± 0.006 Abs. 450 nm. The “MPO concentration of whole blood” value [1, 4] was 6.23 ± 1.42 µg/mL.
In the case of `CCCCCCCCCCCCCCCCCC[N+](C)(C)C.[Cl-]` [OTAC, Octadecyltrimethylammonium Chloride], the “MPO concentration of whole blood” value [1, 6] is reported as 7.47 ± 0.38 µg/mL.
